From ChEMBL document CHEMBL1201862, “PubChem BioAssay data set” (2004)
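Growth conditions: 96-well plates. Treatment: test compound, 48 hours, 5 concentrations. Analysis: linear interpolation between bracketing concentrations; unreached endpoints set to highest concentration. GI50 = concentration required for 50% inhibition of growth.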 Calls of active or inactive are those of the source. Rule as the data show it: active = GI50 up to about 1.1 µM and inactive = higher.

Columns and labels:
Experiment in all cases: DTP human tumour cell line panel, 48 h
DU-145 = test system: DU-145
SK-OV-3 = test system: SK-OV-3
SF-268 = test system: SF-268
OVCAR-8 = test system: OVCAR-8
COLO 205 = test system: COLO 205
UACC-62 = test system: UACC-62
NCI-H23 = test system: NCI-H23
ACHN = test system: ACHN
NCI-H460 = test system: NCI-H460
IGROV-1 = test system: IGROV-1
SF-295 = test system: SF-295
HL-60 = test system: HL-60
SNB-19 = test system: SNB-19
BT-549 = test system: BT-549
A549 = test system: A549
MDA-N = test system: MDA-N
HOP-92 = test system: HOP-92
OVCAR-4 = test system: OVCAR-4
T47D = test system: T47D
NCI-H522 = test system: NCI-H522

**Q.** What does the source list for COc1ccc(/C=C/C(=O)CCN2CCN(CCC(=O)/C=C/c3ccc(OC)cc3)CC2)cc1?
**A.** GI50 (DU-145): 26.2 µM (inactive); GI50 (SK-OV-3): 11.8 µM (inactive); GI50 (SF-268): 17.4 µM (inactive); GI50 (OVCAR-8): 20.8 µM (inactive); GI50 (COLO 205): 2.01 µM (inactive); GI50 (UACC-62): 13.4 µM (inactive); GI50 (NCI-H23): 15.6 µM (inactive); GI50 (ACHN): 14.2 µM (inactive); GI50 (NCI-H460): 11.1 µM (inactive); GI50 (IGROV-1): 11.5 µM (inactive); GI50 (SF-295): 8.26 µM (inactive); GI50 (HL-60): 4.61 µM (inactive); GI50 (SNB-19): 43.6 µM (inactive); GI50 (BT-549): 18.6 µM (inactive); GI50 (A549): 20.9 µM (inactive); GI50 (MDA-N): 2.54 µM (inactive); GI50 (HOP-92): 18.6 µM (inactive); GI50 (OVCAR-4): 22.8 µM (inactive)

**Q.** How did the GI50 (DU-145) turn out when CC(NCCN(C)C)C1CCC2C3CCc4cc(O)ccc4C3CCC12C (configuration not stated) was run?
**A.** 6.18 µM (inactive)

**Q.** What about the GI50 (SK-OV-3) of the same compound?
**A.** 3.69 µM (inactive)

**Q.** And the GI50 (SF-268)?
**A.** 5.28 µM (inactive)

**Q.** What about the GI50 (OVCAR-8) of the same compound?
**A.** 2.79 µM (inactive)

**Q.** What about the GI50 (COLO 205) of the same compound?
**A.** 1.84 µM (inactive)

**Q.** What about the GI50 (T47D) of the same compound?
**A.** 2.34 µM (inactive)

**Q.** And the GI50 (UACC-62)?
**A.** 1.93 µM (inactive)

**Q.** And the GI50 (NCI-H23)?
**A.** 4.45 µM (inactive)

**Q.** And the GI50 (NCI-H522)?
**A.** 3.2 µM (inactive)

**Q.** And the GI50 (ACHN)?
**A.** 2 µM (inactive)

**Q.** And the GI50 (NCI-H460)?
**A.** 2.2 µM (inactive)

**Q.** What about the GI50 (IGROV-1) of the same compound?
**A.** 4.97 µM (inactive)

**Q.** What about the GI50 (SF-295) of the same compound?
**A.** 2.59 µM (inactive)

**Q.** And the GI50 (HL-60)?
**A.** 2.09 µM (inactive)

**Q.** What about the GI50 (SNB-19) of the same compound?
**A.** 3.54 µM (inactive)

**Q.** What about the GI50 (BT-549) of the same compound?
**A.** 17.4 µM (inactive)

**Q.** And the GI50 (A549)?
**A.** 3.65 µM (inactive)

**Q.** And the GI50 (HOP-92)?
**A.** 2.81 µM (inactive)

**Q.** What about the GI50 (OVCAR-4) of the same compound?
**A.** 3.02 µM (inactive)

**Q.** Which results are given for Clc1ccc(CNc2nc(Cl)c3nc[nH]c3n2)cc1Cl?
**A.** GI50 (DU-145): 19 µM (inactive); GI50 (SK-OV-3): 20.6 µM (inactive); GI50 (SF-268): 25.4 µM (inactive); GI50 (OVCAR-8): 17.9 µM (inactive); GI50 (COLO 205): 22.6 µM (inactive); GI50 (T47D): 6.71 µM (inactive); GI50 (UACC-62): 11.2 µM (inactive); GI50 (NCI-H23): 22.4 µM (inactive); GI50 (NCI-H522): 11.3 µM (inactive); GI50 (ACHN): 31.2 µM (inactive); GI50 (NCI-H460): 28.2 µM (inactive); GI50 (IGROV-1): 42.7 µM (inactive); GI50 (SF-295): 20 µM (inactive); GI50 (SNB-19): 34 µM (inactive); GI50 (BT-549): 24.2 µM (inactive); GI50 (A549): 23.1 µM (inactive); GI50 (MDA-N): 26.4 µM (inactive); GI50 (OVCAR-4): 35.4 µM (inactive)

**Q.** For c1ccc(/N=C2\SC(c3ccccc3)CN2C23CC4CC(CC(C4)C2)C3)cc1 (configuration not stated), which GI50 (DU-145) is on record?
**A.** > 100 µM (inactive)

**Q.** And the GI50 (SF-268)?
**A.** > 100 µM (inactive)

**Q.** And the GI50 (OVCAR-8)?
**A.** > 100 µM (inactive)

**Q.** What about the GI50 (COLO 205) of the same compound?
**A.** > 100 µM (inactive)

**Q.** What about the GI50 (NCI-H23) of the same compound?
**A.** > 100 µM (inactive)

**Q.** And the GI50 (NCI-H522)?
**A.** > 100 µM (inactive)

**Q.** What about the GI50 (ACHN) of the same compound?
**A.** > 100 µM (inactive)

**Q.** And the GI50 (NCI-H460)?
**A.** > 100 µM (inactive)

**Q.** What about the GI50 (IGROV-1) of the same compound?
**A.** > 100 µM (inactive)

**Q.** And the GI50 (SF-295)?
**A.** > 100 µM (inactive)

**Q.** And the GI50 (HL-60)?
**A.** > 100 µM (inactive)

**Q.** What about the GI50 (SNB-19) of the same compound?
**A.** > 100 µM (inactive)

**Q.** And the GI50 (BT-549)?
**A.** > 100 µM (inactive)

**Q.** What about the GI50 (A549) of the same compound?
**A.** > 100 µM (inactive)

**Q.** And the GI50 (MDA-N)?
**A.** > 100 µM (inactive)

**Q.** And the GI50 (HOP-92)?
**A.** > 100 µM (inactive)

**Q.** And the GI50 (OVCAR-4)?
**A.** > 100 µM (inactive)

**Q.** Which GI50 (DU-145) does the source give for CC1=C(N2CC2)C(=O)c2nc3n(c2C1=O)CCC3O (configuration not stated) here?
**A.** 0.0111 µM (active)

**Q.** What about the GI50 (SK-OV-3) of the same compound?
**A.** 0.249 µM (active)

**Q.** What about the GI50 (SF-268) of the same compound?
**A.** 0.104 µM (active)

**Q.** And the GI50 (OVCAR-8)?
**A.** 0.201 µM (active)

**Q.** And the GI50 (COLO 205)?
**A.** 0.41 µM (active)

**Q.** And the GI50 (T47D)?
**A.** 0.395 µM (active)

**Q.** And the GI50 (UACC-62)?
**A.** 0.168 µM (active)

**Q.** What about the GI50 (NCI-H23) of the same compound?
**A.** 0.104 µM (active)

**Q.** And the GI50 (NCI-H522)?
**A.** 0.145 µM (active)

**Q.** And the GI50 (ACHN)?
**A.** 0.152 µM (active)

**Q.** What about the GI50 (NCI-H460) of the same compound?
**A.** 0.092 µM (active)

**Q.** What about the GI50 (IGROV-1) of the same compound?
**A.** 0.461 µM (active)

**Q.** What about the GI50 (SF-295) of the same compound?
**A.** 0.166 µM (active)

**Q.** What about the GI50 (HL-60) of the same compound?
**A.** 0.566 µM (active)

**Q.** And the GI50 (SNB-19)?
**A.** 0.269 µM (active)

**Q.** And the GI50 (BT-549)?
**A.** 0.0171 µM (active)

**Q.** What about the GI50 (A549) of the same compound?
**A.** 0.215 µM (active)

**Q.** What about the GI50 (HOP-92) of the same compound?
**A.** 2.23 µM (inactive)

**Q.** And the GI50 (OVCAR-4)?
**A.** 0.0662 µM (active)

**Q.** With COC(=O)c1c(O)ccc2c1c1c(n2Cc2ccccn2)C(=O)c2ccccc2C1 as the compound, how does the GI50 (DU-145) read?
**A.** > 100 µM (inactive)

**Q.** What about the GI50 (SK-OV-3) of the same compound?
**A.** 96.2 µM (inactive)

**Q.** And the GI50 (SF-268)?
**A.** 74.5 µM (inactive)

**Q.** And the GI50 (OVCAR-8)?
**A.** > 100 µM (inactive)

**Q.** What about the GI50 (COLO 205) of the same compound?
**A.** 13.5 µM (inactive)

**Q.** And the GI50 (UACC-62)?
**A.** > 100 µM (inactive)

**Q.** What about the GI50 (NCI-H23) of the same compound?
**A.** > 100 µM (inactive)

**Q.** And the GI50 (NCI-H460)?
**A.** 50.2 µM (inactive)

**Q.** And the GI50 (IGROV-1)?
**A.** 71 µM (inactive)

**Q.** What about the GI50 (SF-295) of the same compound?
**A.** > 100 µM (inactive)

**Q.** And the GI50 (HL-60)?
**A.** > 100 µM (inactive)

**Q.** What about the GI50 (SNB-19) of the same compound?
**A.** > 100 µM (inactive)

**Q.** What about the GI50 (BT-549) of the same compound?
**A.** > 100 µM (inactive)

**Q.** What about the GI50 (A549) of the same compound?
**A.** 66.1 µM (inactive)

**Q.** What about the GI50 (MDA-N) of the same compound?
**A.** > 100 µM (inactive)

**Q.** What about the GI50 (OVCAR-4) of the same compound?
**A.** 19.4 µM (inactive)
